According to patent US10039764B2, “Treatment and diagnosis of cancer and precancerous conditions using PDE10A inhibitors and methods to measure PDE10A expression” (University of South Alabama, priority 2013, dated 2018):
Like-named read-outs stand apart in the source and are kept apart here.

How the values were obtained:
[1] = test system: HCT116 human colon tumor cells; assay: Growth assay (Cell Titer Glo), HCT116; assay type: cell-based; details: Homo sapiens, HCT-116
Excerpt: (§1) All cell lines comprising the NCI-60 cancer cell panel were obtained from the NCI Developmental Therapeutics Program and maintained under the same standard conditions. The human normal colonocyte (NCM460) cell line was purchased from Incell (San Antonio, Tex.) and grown according to the manufacturer's specifications. The human colon adenoma cell line, LT97, was a gift from Dr. Brigitte Marian (Medical University Vienna, Austria) and grown according to the provider's specifications. Human mammary epithelial cells (HMEC) were purchased from Lonzo and grown using culture conditions as recommended by the supplier.
(§2) Ninety-six (96)-well microtiter plates were seeded at a density of 5,000 cells per well. For drug treatment, cells were treated with compounds or vehicle control, and incubated at 37° C. for 72 hours. For siRNA assays, cells were transfected with siRNA under the same conditions described above. The effect of treatment with inhibitors or siRNA knockdown of PDE10A on growth was measured using the Cell Titer Glo Assay (Promega), which measures viable cell number based on ATP content.
(§3) Effect of various PDE isozyme inhibitors on the growth of human colon tumor cells HCT116 and HT29 was determined using the Cell Titer Glo Cell Viability Assay (Promega) following 72 hours of treatment.
(§4) The effect of the inhibitors on the growth of human colon tumor and normal colonocytes was measured using the Cell Titer Glo Cell Viability Assay (Promega) as described above. The inhibitory potency toward purified recombinant phosphodiesterase enzymes was measured using the IMAP Phosphodiesterase Assay as described in the Materials and Methods section.

[2] = test system: HT29 human colon tumor cells; assay: Growth assay (Cell Titer Glo), HT29; assay type: cell-based; details: Homo sapiens, HT-29
Excerpt: as §1, §2, §3, §4

[3] = test system: SW480 human colon tumor cells; assay: Growth assay (Cell Titer Glo), SW480; assay type: cell-based
Excerpt: as §1, §2, §4

[4] = test system: normal colonocytes (NCM460); assay: Growth assay (Cell Titer Glo), normal colonocytes NCM460; assay type: cell-based, human; details: for IC50: Homo sapiens, NCM460
Excerpt: as §1, §2, §4

[5] = biological target: T1, PDE10A (Homo sapiens, UniProt Q9Y233); assay: IMAP fluorescence polarization PDE assay, PDE10A; assay type: biochemical; details: recombinant enzyme
T1 construct: other: substrate cGMP; recombinant enzyme; other: substrate cAMP
Experimental: (§5) MY5445 was purchased from EMD Millipore. […] Recombinant PDE enzymes were purchased from BPS Biosciences. DMSO was used as the vehicle for testing effects of all compounds.
(§6) PDE enzymatic activity was measured using IMAP fluorescence polarization assay (Molecular Devices. Inc.). […] For experiments involving cell extracts, 2×10^5 cells per well were plated on a six-well tissue culture plate 72 hours prior to cell lysis.
as §4

[6] = biological target: T2, PDE1A (Homo sapiens, UniProt P54750); assay: IMAP fluorescence polarization PDE assay, PDE1A; assay type: biochemical
T2 construct: purchased BPS Biosciences
Experimental: as §5, §6, §4

[7] = biological target: T3, PDE2A (Homo sapiens, UniProt O00408); assay: IMAP fluorescence polarization PDE assay, PDE2A; assay type: biochemical
T3 construct: purchased BPS Biosciences
Experimental: as §5, §6, §4

[8] = biological target: T4, PDE3A (Homo sapiens, UniProt Q14432); assay: IMAP fluorescence polarization PDE assay, PDE3A; assay type: biochemical
T4 construct: purchased BPS Biosciences
Experimental: as §5, §6, §4

[9] = biological target: T5, PDE3B (Homo sapiens, UniProt Q13370); assay: IMAP fluorescence polarization PDE assay, PDE3B; assay type: biochemical; details: substrate cGMP; read-out: Phosphodiesterase Inhibition PDE3B cGMP IC50
T5 construct: purchased BPS Biosciences
Experimental: as §5, §6, §4

[10] = biological target: T6, PDE4B (Homo sapiens, UniProt Q07343); assay: IMAP fluorescence polarization PDE assay, PDE4B; assay type: biochemical; details: substrate cAMP; read-out: Phosphodiesterase Inhibition PDE4B cAMP IC50
T6 construct: purchased BPS Biosciences
Experimental: as §5, §6, §4

[11] = biological target: T7, PDE5A (Homo sapiens, UniProt O76074); assay: IMAP fluorescence polarization PDE assay, PDE5A; assay type: biochemical; details: substrate cGMP; read-out: Phosphodiesterase Inhibition PDE5A (PDE5) cGMP IC50
T7 construct: purchased BPS Biosciences
Experimental: as §5, §6, §4

[12] = biological target: T8, PDE9A (Homo sapiens, UniProt O76083); assay: IMAP fluorescence polarization PDE assay, PDE9A; assay type: biochemical; details: substrate cGMP; read-out: Phosphodiesterase Inhibition PDE9A cGMP IC50
T8 construct: purchased BPS Biosciences
Experimental: as §5, §6, §4

[13] = biological target: T9, PDE11A (Homo sapiens, UniProt Q9HCR9); assay: IMAP fluorescence polarization PDE assay, PDE11A; assay type: biochemical
T9 construct: purchased BPS Biosciences
Experimental: as §5, §6, §4

T3 sequence (O00408 whole entry): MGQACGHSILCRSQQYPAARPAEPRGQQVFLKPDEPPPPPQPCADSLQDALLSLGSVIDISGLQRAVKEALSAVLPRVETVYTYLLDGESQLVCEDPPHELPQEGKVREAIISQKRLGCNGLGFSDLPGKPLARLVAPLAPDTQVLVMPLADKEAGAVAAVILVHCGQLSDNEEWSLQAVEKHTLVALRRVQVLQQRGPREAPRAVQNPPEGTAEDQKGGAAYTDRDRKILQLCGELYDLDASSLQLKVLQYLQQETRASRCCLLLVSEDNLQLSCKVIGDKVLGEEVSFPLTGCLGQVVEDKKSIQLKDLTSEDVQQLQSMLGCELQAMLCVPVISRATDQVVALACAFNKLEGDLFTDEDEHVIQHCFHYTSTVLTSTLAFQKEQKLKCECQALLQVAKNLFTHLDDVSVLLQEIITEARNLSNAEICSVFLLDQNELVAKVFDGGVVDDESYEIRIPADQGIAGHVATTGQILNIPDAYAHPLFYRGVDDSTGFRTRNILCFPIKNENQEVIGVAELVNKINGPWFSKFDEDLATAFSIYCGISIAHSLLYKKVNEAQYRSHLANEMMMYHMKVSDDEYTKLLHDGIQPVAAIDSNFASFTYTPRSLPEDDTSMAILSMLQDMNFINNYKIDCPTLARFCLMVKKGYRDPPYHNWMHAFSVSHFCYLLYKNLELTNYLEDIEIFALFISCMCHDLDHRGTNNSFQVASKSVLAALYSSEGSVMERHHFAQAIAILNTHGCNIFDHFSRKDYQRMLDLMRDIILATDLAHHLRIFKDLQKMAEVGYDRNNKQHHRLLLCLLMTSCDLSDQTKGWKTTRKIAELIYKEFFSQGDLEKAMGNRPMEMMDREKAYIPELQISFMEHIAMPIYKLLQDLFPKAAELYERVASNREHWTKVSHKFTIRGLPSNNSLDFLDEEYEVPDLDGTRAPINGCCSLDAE
T9 sequence (Q9HCR9 whole entry): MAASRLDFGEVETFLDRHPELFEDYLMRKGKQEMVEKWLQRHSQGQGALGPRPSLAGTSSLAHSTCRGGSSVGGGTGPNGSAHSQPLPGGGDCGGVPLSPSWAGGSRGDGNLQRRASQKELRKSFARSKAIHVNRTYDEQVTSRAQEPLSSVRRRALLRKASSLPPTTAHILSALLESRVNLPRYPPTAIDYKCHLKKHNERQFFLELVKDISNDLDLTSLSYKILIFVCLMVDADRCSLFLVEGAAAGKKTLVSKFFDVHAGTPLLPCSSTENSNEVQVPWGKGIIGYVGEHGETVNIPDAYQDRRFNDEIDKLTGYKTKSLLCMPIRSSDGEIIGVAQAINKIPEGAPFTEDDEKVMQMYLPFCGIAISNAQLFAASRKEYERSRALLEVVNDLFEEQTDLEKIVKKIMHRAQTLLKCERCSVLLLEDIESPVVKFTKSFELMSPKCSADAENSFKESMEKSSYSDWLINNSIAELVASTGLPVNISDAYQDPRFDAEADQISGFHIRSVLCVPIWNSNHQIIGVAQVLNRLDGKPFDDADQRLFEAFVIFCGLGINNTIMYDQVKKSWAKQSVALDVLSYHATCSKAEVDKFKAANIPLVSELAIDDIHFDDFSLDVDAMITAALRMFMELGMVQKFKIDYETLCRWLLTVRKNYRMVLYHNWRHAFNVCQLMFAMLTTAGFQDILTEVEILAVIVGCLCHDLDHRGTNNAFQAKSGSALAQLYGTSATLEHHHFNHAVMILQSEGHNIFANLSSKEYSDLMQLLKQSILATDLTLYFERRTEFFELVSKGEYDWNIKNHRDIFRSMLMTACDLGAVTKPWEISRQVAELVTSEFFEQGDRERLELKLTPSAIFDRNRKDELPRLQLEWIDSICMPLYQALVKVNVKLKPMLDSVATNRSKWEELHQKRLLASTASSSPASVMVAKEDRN
T2 sequence (P54750 whole entry): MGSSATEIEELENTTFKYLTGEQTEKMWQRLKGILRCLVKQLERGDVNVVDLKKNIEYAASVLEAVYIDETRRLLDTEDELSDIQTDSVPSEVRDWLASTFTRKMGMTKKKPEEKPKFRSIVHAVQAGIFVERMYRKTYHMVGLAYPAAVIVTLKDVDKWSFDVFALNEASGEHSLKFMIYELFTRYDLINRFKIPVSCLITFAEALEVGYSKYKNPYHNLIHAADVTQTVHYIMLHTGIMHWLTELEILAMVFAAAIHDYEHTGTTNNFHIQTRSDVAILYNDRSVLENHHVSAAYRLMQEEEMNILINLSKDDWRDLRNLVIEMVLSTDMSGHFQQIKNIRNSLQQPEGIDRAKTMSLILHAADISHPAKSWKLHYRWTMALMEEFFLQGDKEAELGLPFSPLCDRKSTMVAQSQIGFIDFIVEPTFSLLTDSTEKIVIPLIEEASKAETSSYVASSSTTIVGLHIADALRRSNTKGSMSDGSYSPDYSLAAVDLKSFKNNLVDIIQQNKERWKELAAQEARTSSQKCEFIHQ
T4 sequence (Q14432 whole entry): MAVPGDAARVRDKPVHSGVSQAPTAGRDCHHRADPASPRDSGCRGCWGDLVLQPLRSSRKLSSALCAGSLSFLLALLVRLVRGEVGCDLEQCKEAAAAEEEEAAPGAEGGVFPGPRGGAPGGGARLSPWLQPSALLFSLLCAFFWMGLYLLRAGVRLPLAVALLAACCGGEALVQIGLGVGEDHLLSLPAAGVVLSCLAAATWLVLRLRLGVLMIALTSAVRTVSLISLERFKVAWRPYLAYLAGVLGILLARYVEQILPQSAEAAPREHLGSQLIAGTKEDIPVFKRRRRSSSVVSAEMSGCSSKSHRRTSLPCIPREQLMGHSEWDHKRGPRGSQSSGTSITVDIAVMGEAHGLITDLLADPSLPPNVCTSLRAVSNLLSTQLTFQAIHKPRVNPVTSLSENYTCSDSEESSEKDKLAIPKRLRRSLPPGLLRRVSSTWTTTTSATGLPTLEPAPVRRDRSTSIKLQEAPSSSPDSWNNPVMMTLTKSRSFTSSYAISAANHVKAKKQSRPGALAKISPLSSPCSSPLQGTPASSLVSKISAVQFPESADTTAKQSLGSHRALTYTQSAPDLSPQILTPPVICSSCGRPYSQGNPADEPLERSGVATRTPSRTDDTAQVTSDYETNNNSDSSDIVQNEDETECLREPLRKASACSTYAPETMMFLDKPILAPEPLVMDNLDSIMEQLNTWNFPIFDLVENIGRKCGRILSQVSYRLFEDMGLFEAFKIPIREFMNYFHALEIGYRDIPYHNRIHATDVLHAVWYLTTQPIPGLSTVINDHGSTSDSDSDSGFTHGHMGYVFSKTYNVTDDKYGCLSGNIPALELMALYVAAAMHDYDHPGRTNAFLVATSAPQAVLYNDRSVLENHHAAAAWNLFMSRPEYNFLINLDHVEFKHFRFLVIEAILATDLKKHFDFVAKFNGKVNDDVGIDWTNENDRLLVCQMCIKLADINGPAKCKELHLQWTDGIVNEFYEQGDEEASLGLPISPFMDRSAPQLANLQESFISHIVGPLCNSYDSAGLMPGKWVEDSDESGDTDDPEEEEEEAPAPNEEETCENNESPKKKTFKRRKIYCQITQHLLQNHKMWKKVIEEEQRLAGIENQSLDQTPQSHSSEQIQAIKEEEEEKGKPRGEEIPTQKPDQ
T1 sequence (Q9Y233 290-1055 limits assumed): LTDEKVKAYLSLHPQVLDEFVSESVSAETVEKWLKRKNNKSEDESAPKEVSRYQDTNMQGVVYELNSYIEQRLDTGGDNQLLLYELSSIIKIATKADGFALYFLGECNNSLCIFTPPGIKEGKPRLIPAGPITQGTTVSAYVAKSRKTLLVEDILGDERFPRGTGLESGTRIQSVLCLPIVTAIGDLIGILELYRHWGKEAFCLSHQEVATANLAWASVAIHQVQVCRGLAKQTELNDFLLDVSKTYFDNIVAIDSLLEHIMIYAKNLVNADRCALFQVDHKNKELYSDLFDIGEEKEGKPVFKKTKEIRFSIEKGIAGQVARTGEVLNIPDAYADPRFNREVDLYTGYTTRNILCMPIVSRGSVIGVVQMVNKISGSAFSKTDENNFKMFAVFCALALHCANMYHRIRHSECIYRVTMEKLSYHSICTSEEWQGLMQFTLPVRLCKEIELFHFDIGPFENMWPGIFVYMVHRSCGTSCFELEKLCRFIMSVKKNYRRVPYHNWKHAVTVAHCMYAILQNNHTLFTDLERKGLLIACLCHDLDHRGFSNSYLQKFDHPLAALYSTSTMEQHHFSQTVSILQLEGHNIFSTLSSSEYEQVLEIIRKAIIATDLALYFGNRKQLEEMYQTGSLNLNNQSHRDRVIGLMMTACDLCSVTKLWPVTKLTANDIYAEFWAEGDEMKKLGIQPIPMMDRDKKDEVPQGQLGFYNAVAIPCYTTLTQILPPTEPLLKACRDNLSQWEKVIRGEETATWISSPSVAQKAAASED
T8 sequence (O76083 whole entry): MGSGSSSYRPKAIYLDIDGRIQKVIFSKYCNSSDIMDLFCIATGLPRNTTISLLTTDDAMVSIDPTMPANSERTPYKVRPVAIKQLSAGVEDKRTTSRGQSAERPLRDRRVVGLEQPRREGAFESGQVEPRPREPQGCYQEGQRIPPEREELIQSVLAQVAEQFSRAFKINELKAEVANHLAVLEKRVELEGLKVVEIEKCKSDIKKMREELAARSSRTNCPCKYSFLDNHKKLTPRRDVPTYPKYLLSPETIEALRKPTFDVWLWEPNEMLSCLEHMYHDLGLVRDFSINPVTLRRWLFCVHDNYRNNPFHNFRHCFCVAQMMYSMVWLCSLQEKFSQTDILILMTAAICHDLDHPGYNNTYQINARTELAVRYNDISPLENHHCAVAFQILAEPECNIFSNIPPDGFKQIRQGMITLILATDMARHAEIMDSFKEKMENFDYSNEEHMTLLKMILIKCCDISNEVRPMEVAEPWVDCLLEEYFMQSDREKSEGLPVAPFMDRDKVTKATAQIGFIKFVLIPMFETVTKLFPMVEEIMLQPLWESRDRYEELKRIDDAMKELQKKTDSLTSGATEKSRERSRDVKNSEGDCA

`COc1cc2ncnc(N3CC[C@@H](Oc4cnc5ccccc5n4)C3)c2cc1OC` [PQ-10, (R)-6,7-dimethoxy-4-{3-(quinoxalin-2-yloxy)pyrrolidin-1-yl}quinazoline] showed an IC50 ([1]; 72 hours of treatment, FIG. 11, read-out: IC50, growth of HCT116 colon tumor cells) of 0.29 µM, an IC50 ([1]; PDE10 Inhibitors table, read-out: Growth Inhibition IC50, HCT-116) of 0.201 µM and an IC50 ([2]; 72 hours of treatment, FIG. 11, read-out: IC50, growth of HT29 colon tumor cells) of 0.13 µM. It also gave an IC50 ([2]; PDE10 Inhibitors table, read-out: Growth Inhibition IC50, HT-29) of 0.197 µM, an IC50 ([3]; 72 hours of treatment, FIG. 11C, read-out: IC50, growth of SW-480 colon tumor cells) of 0.22 µM and an IC50 ([3]; PDE10 Inhibitors table, read-out: Growth Inhibition IC50, SW-480) of 0.199 µM. The IC50 ([4]; 72 hours of treatment, FIG. 11, read-out: IC50, growth of normal colonocytes (NCM460)) was 8.4 µM, the IC50 ([4]; PDE10 Inhibitors table, read-out: Growth Inhibition IC50, NCM-460) was over 5 µM and the “normal colonocytes (NCM460) less sensitive than colon tumor cell lines” value ([4]; NCM460 vs HCT116, SW-480 and HT29) was “approximately 40 times”. For the same compound, the IC50 ([5]; Phosphodiesterase Inhibition PDE10A cAMP IC50, substrate cAMP) was 0.00538 µM, the IC50 ([5]; Phosphodiesterase Inhibition PDE10A cGMP IC50, substrate cGMP) was 0.00388 µM and the IC50 ([6]; substrate cAMP, read-out: Phosphodiesterase Inhibition PDE1A cAMP IC50) was 29.2 µM. For the same compound, the IC50 ([6]; substrate cGMP, read-out: Phosphodiesterase Inhibition PDE1A cGMP IC50) was 8.8 µM, the IC50 ([7]; substrate cAMP, read-out: Phosphodiesterase Inhibition PDE2A cAMP IC50) was 7 µM and the IC50 ([7]; substrate cGMP, read-out: Phosphodiesterase Inhibition PDE2A cGMP IC50) was 3.7 µM. For the same compound, the IC50 ([8]; substrate cAMP, read-out: Phosphodiesterase Inhibition PDE3A cAMP IC50) was 0.47 µM, the IC50 ([8]; substrate cGMP, read-out: Phosphodiesterase Inhibition PDE3A cGMP IC50) was 0.211 µM and the IC50 [9] was 0.273 µM. The IC50 [10] was 17.8 µM, the IC50 [11] was 1.8 µM and the IC50 [12] was over 200 µM. It also gave an IC50 ([13]; substrate cAMP, read-out: Phosphodiesterase Inhibition PDE11A cAMP IC50) of 30.1 µM and an IC50 ([13]; substrate cGMP, read-out: Phosphodiesterase Inhibition PDE11A cGMP IC50) of 13.2 µM.
